ChEMBL document CHEMBL6092206, “Discovery and Characterization of BAY-184: A New Potent and Selective Acylsulfonamide-Benzofuran In Vivo-Active KAT6AB Inhibitor” (J Med Chem, 2024)
Calls of active or inactive are those of the source. No cut-off for these calls is given here.

What was measured:
[1] = system: HaCaT; experiment: Cytotoxicity against human HaCaT cells incubated for 72 hrs; assay type: toxicity, cell-based
[2] = Mutagenicity in Salmonella typhimurium TA1535 by Ames test; assay type: toxicity; conditions: salmonella enterica subsp. enterica serovar typhimurium
[3] = Plasma protein binding in rat assessed as unbound fraction equilibrium dialysis based LC-MS/MS analysis; assay type: ADME, cell-free
[4] = biological target: T1, Histone acetyltransferase KAT8 (Homo sapiens, UniProt Q9H7Z6); experiment: Inhibition of full length N-terminal GST-tagged human recombinant KAT8 (174 to 449 residues) using H4-derived peptide as substrate incubated for 60 mins in presence of AcCoA by TR-FRET assay; set-up: species or system Sf9
T1 sequence (Q9H7Z6 whole entry): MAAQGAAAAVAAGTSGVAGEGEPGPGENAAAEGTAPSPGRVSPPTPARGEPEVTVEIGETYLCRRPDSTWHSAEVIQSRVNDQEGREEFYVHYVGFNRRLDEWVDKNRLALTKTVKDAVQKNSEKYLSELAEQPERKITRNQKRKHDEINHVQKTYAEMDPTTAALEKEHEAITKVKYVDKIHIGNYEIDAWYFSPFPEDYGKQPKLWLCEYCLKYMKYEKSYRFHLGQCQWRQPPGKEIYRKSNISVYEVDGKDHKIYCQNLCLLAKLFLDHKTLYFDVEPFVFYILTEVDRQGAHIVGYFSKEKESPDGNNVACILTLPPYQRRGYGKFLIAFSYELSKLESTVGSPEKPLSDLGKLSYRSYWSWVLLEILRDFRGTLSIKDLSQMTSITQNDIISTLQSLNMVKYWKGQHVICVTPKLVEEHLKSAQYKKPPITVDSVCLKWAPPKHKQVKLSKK

[5] = Stability in rat plasma assessed as parent compound remaining after 4 hrs; assay type: ADME, cell-free
[6] = system: LCLC-97TM1; experiment: Antiproliferative activity against human LCLC-97TM1 cells assessed as inhibition of cell proliferation incubated for 6 days by alamar blue staining based assay; assay type: functional; conditions: time 6.0 day
[7] = Apparent permeability across apical to basolateral side in human Caco-2 cells at 2 uM pH 7.2 measured for 2 hrs by LC-MS/MS analysis; assay type: ADME, cell-based; conditions: caco-2, pH 7.2, 2 h, 2 µM
[8] = biological target: T2, Histone acetyltransferase KAT6A (Homo sapiens, UniProt Q92794); experiment: Inhibition of KAT6A in human ZR-75-1 cells assessed as reduction in H3K23ac level at 1 uM measured after 144 hrs by Western blot analysis; assay type: cell-based
T2 sequence (Q92794 whole entry, looked up): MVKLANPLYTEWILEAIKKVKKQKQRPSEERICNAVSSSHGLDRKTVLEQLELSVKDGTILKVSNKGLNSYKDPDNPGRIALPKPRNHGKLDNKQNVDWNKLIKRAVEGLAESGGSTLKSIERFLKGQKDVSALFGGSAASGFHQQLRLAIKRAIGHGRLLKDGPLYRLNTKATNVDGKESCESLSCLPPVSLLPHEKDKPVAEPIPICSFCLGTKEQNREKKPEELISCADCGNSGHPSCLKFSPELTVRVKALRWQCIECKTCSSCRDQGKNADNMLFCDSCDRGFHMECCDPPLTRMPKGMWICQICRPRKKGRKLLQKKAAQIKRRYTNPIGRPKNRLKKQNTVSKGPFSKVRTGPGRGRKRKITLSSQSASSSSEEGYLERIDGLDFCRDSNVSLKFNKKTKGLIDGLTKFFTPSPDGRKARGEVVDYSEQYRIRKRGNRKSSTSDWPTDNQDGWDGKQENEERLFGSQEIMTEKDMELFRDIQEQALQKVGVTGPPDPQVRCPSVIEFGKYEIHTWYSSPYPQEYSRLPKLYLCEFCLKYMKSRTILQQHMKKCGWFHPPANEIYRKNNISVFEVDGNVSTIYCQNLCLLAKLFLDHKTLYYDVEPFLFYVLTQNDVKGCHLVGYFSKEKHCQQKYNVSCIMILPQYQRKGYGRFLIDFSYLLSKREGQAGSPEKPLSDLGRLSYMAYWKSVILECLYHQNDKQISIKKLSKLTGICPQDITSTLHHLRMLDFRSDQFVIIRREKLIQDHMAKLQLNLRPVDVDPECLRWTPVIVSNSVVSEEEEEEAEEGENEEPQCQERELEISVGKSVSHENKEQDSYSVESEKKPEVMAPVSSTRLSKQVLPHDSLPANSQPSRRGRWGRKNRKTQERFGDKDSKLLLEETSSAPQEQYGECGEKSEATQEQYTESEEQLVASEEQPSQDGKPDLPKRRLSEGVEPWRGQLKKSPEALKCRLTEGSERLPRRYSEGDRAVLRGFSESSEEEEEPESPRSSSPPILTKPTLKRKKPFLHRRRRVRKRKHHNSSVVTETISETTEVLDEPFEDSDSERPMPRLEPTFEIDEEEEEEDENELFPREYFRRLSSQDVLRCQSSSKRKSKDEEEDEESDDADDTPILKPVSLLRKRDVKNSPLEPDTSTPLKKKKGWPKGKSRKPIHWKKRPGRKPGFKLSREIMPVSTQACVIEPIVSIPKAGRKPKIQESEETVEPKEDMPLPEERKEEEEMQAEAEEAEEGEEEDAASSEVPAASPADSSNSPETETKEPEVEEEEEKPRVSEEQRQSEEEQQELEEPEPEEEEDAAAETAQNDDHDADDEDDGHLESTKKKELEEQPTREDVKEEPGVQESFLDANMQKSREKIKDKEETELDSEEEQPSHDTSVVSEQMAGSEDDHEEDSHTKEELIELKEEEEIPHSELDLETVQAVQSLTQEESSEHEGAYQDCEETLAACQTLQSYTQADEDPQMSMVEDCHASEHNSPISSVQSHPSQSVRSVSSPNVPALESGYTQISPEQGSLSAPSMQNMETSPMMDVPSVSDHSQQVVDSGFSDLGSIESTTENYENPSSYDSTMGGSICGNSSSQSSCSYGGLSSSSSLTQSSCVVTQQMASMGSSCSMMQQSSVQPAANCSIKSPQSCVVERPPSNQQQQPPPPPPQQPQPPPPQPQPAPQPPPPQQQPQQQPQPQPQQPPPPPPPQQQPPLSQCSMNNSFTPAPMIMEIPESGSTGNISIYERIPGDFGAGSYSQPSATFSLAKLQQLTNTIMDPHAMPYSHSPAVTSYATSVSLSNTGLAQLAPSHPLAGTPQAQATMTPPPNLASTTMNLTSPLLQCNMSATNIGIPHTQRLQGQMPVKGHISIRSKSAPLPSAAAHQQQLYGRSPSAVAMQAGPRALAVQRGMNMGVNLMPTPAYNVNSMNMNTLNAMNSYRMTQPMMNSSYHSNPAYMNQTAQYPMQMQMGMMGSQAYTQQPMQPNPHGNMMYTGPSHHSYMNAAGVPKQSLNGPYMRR

[9] = biological target: Voltage-gated inwardly rectifying potassium channel KCNH2 (Homo sapiens, UniProt Q12809); experiment: Inhibition of hERG; assay type: toxicity
[10] = system: ZR-75-1; experiment: Antitumor activity against human ZR-75-1 cells xenografted in female estradiol-primed NMRI mouse assessed as reduction in H3K23 acetylation level in tumor at 100 mg/kg, po administered twice daily measured after 1 to 3 hrs by immunohistochemical analysis; assay type: functional, organism-based; conditions: time 1-3 hrs
[11] = Stability of compound in borate buffer at pH 10 measured for 24 hrs by HPLC analysis; assay type: physicochemical; conditions: pH 10, 24 h
[12] = system: MDA-MB-361; experiment: Antiproliferative activity against human MDA-MB-361 cells assessed as inhibition of cell growth incubated for 6 days by alamar blue staining based assay relative to control; assay type: functional; conditions: time 6 day
[13] = system: CAMA-1; experiment: Antiproliferative activity against human CAMA-1 cells assessed as inhibition of cell growth incubated for 6 days by alamar blue staining based assay relative to control; assay type: functional; conditions: time 6 day
[14] = Stability of compound in PBS buffer at pH 7 measured for 24 hrs by HPLC analysis; assay type: physicochemical; conditions: pH 7, 24 h
[15] = Oral bioavailability in male Wistar rat at 1 mg/kg measured upto 24 hrs by LC-MS/S analysis; assay type: ADME, organism-based; conditions: in vivo
[16] = Metabolic stability in rat hepatocyte assessed as maximum bioavailability of the drug measured for 2 to 90 mins by LC-MS/MS analysis; assay type: ADME; conditions: hepatocytes, time 2-90 min, read-out: Fmax
[17] = system: MCF7; experiment: Antiproliferative activity against human MCF7 cells assessed as inhibition of cell growth incubated for 6 days by alamar blue staining based assay relative to control; assay type: functional; conditions: time 6 day
[18] = Stability in human plasma assessed as parent compound remaining after 4 hrs; assay type: ADME, cell-free
[19] = biological target: Histone acetyltransferase p300 (Homo sapiens, UniProt Q09472); experiment: Inhibition of GST-tagged human recombinant p300 (965 to 1810 residues) expressed in Sf9 insect cells using H3-derived peptide as substrate incubated for 30 mins in presence of AcCoA by TR-FRET assay
Chain of Histone acetyltransferase p300 (Q09472 whole entry, the tested form may be a part): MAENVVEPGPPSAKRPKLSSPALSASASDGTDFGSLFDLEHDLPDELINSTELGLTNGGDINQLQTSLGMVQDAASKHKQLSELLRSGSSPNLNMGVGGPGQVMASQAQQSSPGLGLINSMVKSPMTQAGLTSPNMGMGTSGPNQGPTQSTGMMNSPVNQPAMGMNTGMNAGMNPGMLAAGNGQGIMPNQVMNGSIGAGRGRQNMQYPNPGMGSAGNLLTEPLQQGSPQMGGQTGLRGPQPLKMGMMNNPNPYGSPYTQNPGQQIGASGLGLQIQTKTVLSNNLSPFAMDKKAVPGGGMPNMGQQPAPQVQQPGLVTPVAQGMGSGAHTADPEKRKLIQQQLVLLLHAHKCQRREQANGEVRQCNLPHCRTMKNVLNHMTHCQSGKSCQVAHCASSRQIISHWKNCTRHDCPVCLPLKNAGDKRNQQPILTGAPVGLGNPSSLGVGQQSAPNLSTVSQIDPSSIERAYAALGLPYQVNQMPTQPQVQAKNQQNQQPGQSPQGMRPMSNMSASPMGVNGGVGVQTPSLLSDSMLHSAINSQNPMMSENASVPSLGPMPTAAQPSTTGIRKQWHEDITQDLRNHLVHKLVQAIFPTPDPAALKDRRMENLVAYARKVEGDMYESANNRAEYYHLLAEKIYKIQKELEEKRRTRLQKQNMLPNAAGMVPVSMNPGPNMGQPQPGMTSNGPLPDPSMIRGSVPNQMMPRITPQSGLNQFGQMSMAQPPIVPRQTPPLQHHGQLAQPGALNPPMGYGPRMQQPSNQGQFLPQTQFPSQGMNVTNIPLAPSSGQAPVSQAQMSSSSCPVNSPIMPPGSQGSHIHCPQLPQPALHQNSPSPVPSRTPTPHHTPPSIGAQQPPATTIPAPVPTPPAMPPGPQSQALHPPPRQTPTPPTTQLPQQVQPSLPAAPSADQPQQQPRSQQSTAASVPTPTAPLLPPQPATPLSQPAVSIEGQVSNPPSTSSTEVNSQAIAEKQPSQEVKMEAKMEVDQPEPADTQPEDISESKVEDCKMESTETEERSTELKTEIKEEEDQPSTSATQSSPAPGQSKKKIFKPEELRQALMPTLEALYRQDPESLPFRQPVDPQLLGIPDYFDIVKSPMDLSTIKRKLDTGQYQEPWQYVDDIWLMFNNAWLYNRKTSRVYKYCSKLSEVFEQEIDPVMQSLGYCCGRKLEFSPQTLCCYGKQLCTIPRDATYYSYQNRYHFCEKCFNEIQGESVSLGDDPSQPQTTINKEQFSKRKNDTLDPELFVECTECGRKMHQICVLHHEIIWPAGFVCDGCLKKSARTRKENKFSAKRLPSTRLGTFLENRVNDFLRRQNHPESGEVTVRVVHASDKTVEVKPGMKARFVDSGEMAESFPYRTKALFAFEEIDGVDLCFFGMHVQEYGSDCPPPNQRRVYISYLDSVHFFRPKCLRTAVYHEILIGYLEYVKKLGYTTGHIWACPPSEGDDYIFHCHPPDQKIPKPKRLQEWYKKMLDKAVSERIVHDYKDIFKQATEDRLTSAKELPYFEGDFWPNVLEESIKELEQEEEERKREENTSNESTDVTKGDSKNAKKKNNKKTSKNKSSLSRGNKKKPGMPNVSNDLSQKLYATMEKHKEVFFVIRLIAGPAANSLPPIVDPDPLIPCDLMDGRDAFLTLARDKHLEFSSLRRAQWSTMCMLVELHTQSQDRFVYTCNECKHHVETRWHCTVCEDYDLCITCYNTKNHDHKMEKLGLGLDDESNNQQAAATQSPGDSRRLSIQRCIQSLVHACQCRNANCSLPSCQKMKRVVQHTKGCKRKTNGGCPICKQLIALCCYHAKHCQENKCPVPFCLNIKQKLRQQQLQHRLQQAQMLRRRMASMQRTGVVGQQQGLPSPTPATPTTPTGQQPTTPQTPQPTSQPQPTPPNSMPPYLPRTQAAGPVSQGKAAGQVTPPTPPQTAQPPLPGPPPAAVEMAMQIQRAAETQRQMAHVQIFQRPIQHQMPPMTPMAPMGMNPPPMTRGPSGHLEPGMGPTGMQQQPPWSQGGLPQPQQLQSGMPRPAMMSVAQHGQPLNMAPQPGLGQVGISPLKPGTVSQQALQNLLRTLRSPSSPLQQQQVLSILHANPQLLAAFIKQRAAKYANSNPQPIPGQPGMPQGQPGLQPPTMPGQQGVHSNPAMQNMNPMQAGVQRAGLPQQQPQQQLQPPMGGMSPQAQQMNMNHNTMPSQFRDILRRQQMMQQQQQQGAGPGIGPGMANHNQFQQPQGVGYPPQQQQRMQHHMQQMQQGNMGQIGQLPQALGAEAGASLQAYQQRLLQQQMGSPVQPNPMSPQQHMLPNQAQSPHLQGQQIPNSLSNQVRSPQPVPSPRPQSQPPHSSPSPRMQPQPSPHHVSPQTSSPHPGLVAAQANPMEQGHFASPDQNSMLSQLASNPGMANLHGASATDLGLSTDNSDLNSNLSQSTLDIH

[20] = Half life in mouse at 0.5 mg/kg, iv; assay type: ADME, organism-based; conditions: in vivo
[21] = Metabolic stability in dog liver microsome assessed as clearance measured for 2 to 60 mins by LC-MS/MS analysis; assay type: ADME, Canis lupus familiaris; conditions: microsomes, time 2-60 min
[22] = Tmax in male Wistar rat at 1 mg/kg, po measured upto 24 hrs by LC-MS/S analysis; assay type: ADME, organism-based; conditions: in vivo
[23] = biological target: Histone acetyltransferase KAT7 (Homo sapiens, UniProt O95251); experiment: Inhibition of full length N-terminal GST-tagged human recombinant KAT7 expressed in Sf9 insect cells using H4-derived peptide as substrate incubated for 30 mins in presence of AcCoA by TR-FRET assay
Chain of Histone acetyltransferase KAT7 (O95251 whole entry): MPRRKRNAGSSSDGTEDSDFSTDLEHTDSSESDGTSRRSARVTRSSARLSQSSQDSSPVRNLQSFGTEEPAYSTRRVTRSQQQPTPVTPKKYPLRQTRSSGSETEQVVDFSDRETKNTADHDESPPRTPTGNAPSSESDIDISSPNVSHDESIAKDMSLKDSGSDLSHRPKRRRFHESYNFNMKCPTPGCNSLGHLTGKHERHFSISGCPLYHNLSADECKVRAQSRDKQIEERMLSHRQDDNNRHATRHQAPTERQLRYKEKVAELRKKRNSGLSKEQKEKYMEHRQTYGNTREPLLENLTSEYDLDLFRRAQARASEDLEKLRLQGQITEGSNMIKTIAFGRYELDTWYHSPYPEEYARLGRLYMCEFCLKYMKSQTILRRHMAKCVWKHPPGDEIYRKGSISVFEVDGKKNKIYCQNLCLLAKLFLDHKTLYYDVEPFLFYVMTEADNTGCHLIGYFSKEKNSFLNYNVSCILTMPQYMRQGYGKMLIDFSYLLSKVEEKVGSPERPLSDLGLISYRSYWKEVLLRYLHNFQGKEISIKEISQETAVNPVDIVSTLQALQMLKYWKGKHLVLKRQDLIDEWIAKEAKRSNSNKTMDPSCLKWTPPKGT

[24] = biological target: T2, Histone acetyltransferase KAT6A; experiment: Inhibition of KAT6A in human ZR-75-1 cells assessed as reduction in H3K23ac level at 1 uM incubated at 10 to 2880 mins by Western blot analysis; assay type: cell-based; conditions: time 10-2880 min
[25] = Metabolic stability in dog liver microsome assessed as maximum bioavailability of the drug measured for 2 to 60 mins by LC-MS/MS analysis; assay type: ADME, Canis lupus familiaris; conditions: liver microsomes, time 2-60 min, read-out: Fmax
[26] = Volume of distribution at steady state in mouse at 0.5 mg/kg, iv; assay type: ADME, organism-based; conditions: in vivo, read-out: Vdss

SMILES: CN(C)c1ccc2cc(C(=O)NS(=O)(=O)c3ccccc3-c3ccccc3)oc2c1
- Activity [1]: Non-toxic
- Activity [2]: Non-toxic
- Fu [3]: 0.048%
- IC50 [4]: > 10 µM
- Stability [5]: Stable
- Activity [6]: Active
- Papp [7]: 14.6 ×10⁻⁶ cm/s
- inhibition [8]: inactive
- inhibition (INH) [9]: Not_active
- Activity [10]: Active
- Stability [11]: Stable
- inhibition (INH) [12]: 22%
- inhibition (INH) [13]: 68%
- Stability [14]: Stable
- bioavailability [15]: 60%
- Fh [16]: 42%
- inhibition (INH) [17]: 66%
- Stability [18]: Stable
- IC50 [19]: > 10 µM
- half-life [20]: 1.3 h
- CLH [21]: 6.83 mL/min/kg
- Tmax [22]: 0.5 h
- IC50 [23]: 1.07 µM
- inhibition [24]: Active
- Fh [25]: 80%
- Vd [26]: 0.32 L/kg
